Assay [1] deals with A4 (STAT3-null) cancer cell line. Kind of assay: MTT cell viability assay, A4. Type of assay: cell-based. The text has this: (§1) MTT Cell viability assay with both MDA-MB-231 breast (STAT3-dependent) and A4 (STAT3-null) cancer cell lines.
(§2) After observing significant STAT3 dimerisation inhibitory activity in the preliminary FP assay, the target ligand and related fragments were progressed to an MTT cytotoxicity assay to evaluate in a STAT3-dependent tumour cell line (MDA MB 231, breast cancer) and a STAT3 null A4 cell line. It was anticipated that the compounds would show selective toxicity towards the STAT3-dependent MDA MB 231 cell line and would have lost activity in the STAT3 null A4 cell line if the mechanism of action was STAT3-mediated.
(§3) For each cell line, a total of 10,000 cells were seeded for 24 hours before addition of the inhibitors. The cells were grown in normal cell culture conditions at 37° C. under a 5% CO2 humidified atmosphere using an appropriate medium. The cell count was adjusted to 10^5 cells/ml, and 5,000-20,000 cells were added per well depending on the cell line. The cells were then incubated for 24 hours, and 1 μl aliquots of the inhibitors were added to the wells in triplicate. […] Absorbance was quantified by spectrophotometry at A=570 nm (Envision™ Plate Reader, PerkinElmer™, USA). IC50 values were calculated by a dose-response analysis using the Prism GraphPad Prism® software package.
Background: Tetrazolium dyes change colour on reduction, which living cells bring about.

Assay [2] concerns the target unphosphorylated STAT3 monomer (uSTAT3) SH2 domain (Homo sapiens, UniProt P40763). Kind of assay: Fluorescence polarisation assay for the inhibition of STAT3 dimerisation. Type of assay: binding. As to conditions: 350 nM uSTAT3, 10 nM FAM-pYLPQTV, 100 μM ligand; average of triplicate. The source says:
Fluorescence Polarisation Assay for the Inhibition of STAT3 Dimerisation
The compounds were subjected to an in vitro fluorescent polarisation (FP)-based primary PPI binding screen to assess their ability to inhibit STAT3 dimerisation by interacting with the SH2 domain. In this FP assay, the unphosphorylated STAT3 monomer (uSTAT3) and a surrogate peptide FAM-pYLPQTV were used to form a ‘pseudo-dimer’. The assay is based on the concept that the compounds were expected to displace the surrogate peptide from the uSTAT3 resulting in a fluorescent read out.
Specifically, for the FP assay, a black (CORNING™) 96 well plate was thoroughly washed with distilled water and allowed to dry. A 100 nM FAM-pYLPQTV working solution was prepared from 10 μM FAM-pYLPQTV stock solution (in DMSO) using PBS pH 7.4 Buffer. 10 μl FAM-pYLPQTV was added to 350 nM uSTAT3 protein, the final concentration of protein in each well, in 90 μl PBS buffer pH 7.4. The MP value of the surrogate dimer complex was measured using a fluorescent plate reader (Envision™, Perkin Elmer™, USA), which provided the base MP value. The inhibitor solution was then added to the well and the assay plate was placed on a shaker for 5 minutes. The MP value for each well was then measured again. A shift in fluorescent values was observed due to displacement of the fluorescently-labelled surrogate peptide by the inhibitors, and the average inhibition for each inhibitor could be calculated as described below:
Base MP value (X) for each well=MP value of Protein and Probe (350 nm STAT3+10 nM FAM-pYLPQTV)−MP value of free FAM-pYLPQTV
Inhibitor MP value (Y) for each well=MP value of Protein+Probe+Inhibitor (350 nm uSTAT3+10 nM FAM-pYLPQTV+2 μL Inhibitor)−MP value of free FAM-pYLPQTV with 2 μL DMSO
% inhibition by any ligand/peptide=(X−Y)/X*100
For comparison purpose, the % inhibition produced by 100 μM pYLKTKF was considered to be 100%, and the inhibition produced by different ligands was reported as relative to 100 μM pYLKTKF.
% Inhibition produced by 100 μM pYLKTKF=A
% Inhibition produced by 100 μM Ligand=B
Relative inhibition (%)=B/A*100
The experiment was carried out in triplicate, and average values were taken as the measure of PPI inhibition.
For orientation: Polarisation of emitted light reports the rotation of a fluorescent probe.

Assay [3] relates to STAT3 and STAT3-dependent genes. Kind of assay: RT-PCR expression of STAT3 and STAT3-dependent genes in LPS-stimulated MDA-MB-231 cells. The assay is classed as cell-based, human. As to conditions: 25 μM, 8 hours, MDA-MB-231 stimulated with 500 μg/mL LPS. As for the experimental part:
Effect of Compounds of the Invention on Expression of STAT3 and STAT3-Dependent Genes.
To probe the STAT3-specific cytotoxicity of the mature ligands, the mRNA expression profile of STAT3 and some STAT3 target genes (i.e., bcl-2, cyclin D1, and fascin) were compared to the reference gene GAPDH using a RT-PCR assay. Initially, the MDA-MB-231 cells were stimulated with 500 μg/mL LPS for 24 hours at 37° C. Following this, the compounds were added at 25 μM to the cells and incubated for another 8 hours at 37° C. Finally, PCR was used to determine changes in the gene expression profiles between stimulated-untreated and stimulated-treated cells.

Assay [4] deals with MDA-MB-231 breast (STAT3-dependent) cancer cell line. In words: MTT cell viability assay, MDA-MB-231. Type of assay: cell-based, human. As to conditions: for IC50: MTT, 48 hours exposure (table title); for Selectivity ratio: STAT3-null A4 versus STAT3-dependent MDA-MB-231.
Source text: as §1, §2, §3

This is an account of results in patent US20200216432A1, “SULFONAMIDE DERIVATIVES AS STAT3 INHIBITORS FOR THE TREATMENT OF PROLIFERATIVE DISEASES” (King's College London, priority 2017, published 2020).

SMILES strings stand for the structures.

One may read the IC50 as the midpoint of a concentration-inhibition curve. By inhibition is commonly meant the relative decrease from the control value, in per cent. Low readings indicate a response near the control, high ones a response far below the control. One may read the % Inhibition as the change of the read-out against control, counted positive when it falls. A low value points to a weak effect.

Sequence of unphosphorylated STAT3 monomer (uSTAT3) SH2 domain (P40763 whole entry, the tested form may be a part): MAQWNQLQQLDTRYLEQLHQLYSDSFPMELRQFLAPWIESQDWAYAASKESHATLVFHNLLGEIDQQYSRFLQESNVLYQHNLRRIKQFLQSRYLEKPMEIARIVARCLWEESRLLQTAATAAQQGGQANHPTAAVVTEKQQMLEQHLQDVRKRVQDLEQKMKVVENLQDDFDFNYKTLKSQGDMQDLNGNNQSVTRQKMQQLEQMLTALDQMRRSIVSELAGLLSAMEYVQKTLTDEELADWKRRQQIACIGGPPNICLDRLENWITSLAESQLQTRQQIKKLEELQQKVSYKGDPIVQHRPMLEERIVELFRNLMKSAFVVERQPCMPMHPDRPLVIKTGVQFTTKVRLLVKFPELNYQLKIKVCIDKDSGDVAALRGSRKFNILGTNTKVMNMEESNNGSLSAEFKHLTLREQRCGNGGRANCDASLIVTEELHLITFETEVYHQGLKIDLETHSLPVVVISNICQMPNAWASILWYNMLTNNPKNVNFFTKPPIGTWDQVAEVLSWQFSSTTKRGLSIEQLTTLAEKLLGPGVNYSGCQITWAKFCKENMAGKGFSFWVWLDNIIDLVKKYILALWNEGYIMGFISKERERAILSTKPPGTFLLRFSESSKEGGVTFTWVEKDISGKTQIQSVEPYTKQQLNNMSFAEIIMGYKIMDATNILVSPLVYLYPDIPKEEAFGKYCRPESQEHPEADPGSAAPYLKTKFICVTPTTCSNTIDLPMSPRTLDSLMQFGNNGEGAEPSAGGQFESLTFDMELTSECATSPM

Consider `COC(=O)c1ccc(N(C)S(=O)(=O)c2cc(C(=O)NCc3ccc(CN4CCCCC4)cc3)sc2-c2ccc(N3CCN(C)CC3)nc2)cc1` [Compound 3, methyl 4-((N-methyl-2-(6-(4-methylpiperazin-1-yl)pyridin-3-yl)-5-((4-(piperidin-1-ylmethyl)benzyl)carbamoyl)thiophene)-3-sulfonamido)benzoate], for which the concentration for half-maximal inhibition (IC50) in assay [1] (exposure (table title)) turned out to be 65.1 µM. For the same compound, in assay [2], the inhibition at 100 µM was more than 50%. In assay [3], the “Bcl-2 mRNA expression (RT-PCR)” value is recorded as “down-regulated”, the “STAT3 mRNA expression (RT-PCR)” value is reported as “notable downregulation”, the “cyclin D1 mRNA expression (RT-PCR)” value is on record as “down-regulated” and the “fascin mRNA expression (RT-PCR)” value was “down-regulated”. The “house-keeping gene GAPDH mRNA expression (RT-PCR)” value in assay [3] is listed as “without showing any effect”.

For the compound `COC(=O)c1ccc(N(C)S(=O)(=O)c2cc(C(=O)NCc3ccc(CN4CCCCC4)cc3)sc2-c2ccc(C(=O)N3CCOCC3)cc2)cc1` [Compound 4, methyl 4-((N-methyl-2-(4-(morpholine-4-carbonyl)phenyl)-5-((4-(piperidin-1-ylmethyl)benzyl)carbamoyl)thiophene)-3-sulfonamido)benzoate], in assay [1] (exposure (table title)), half-maximal inhibition (IC50) was put at 77.4 µM. The inhibition at 100 µM in assay [2] is more than 50%. Also, in assay [3], the “Bcl-2 mRNA expression (RT-PCR)” value is on record as “more pronounced”, the “STAT1 mRNA expression (RT-PCR)” value is “did not downregulate”, the “STAT3 mRNA expression (RT-PCR)” value is “notable downregulation” and the “cyclin D1 mRNA expression (RT-PCR)” value is reported as “relatively low compared to 3”. Besides, in assay [3], the “fascin mRNA expression (RT-PCR)” value is “relatively low compared to 3” and the “house-keeping gene GAPDH mRNA expression (RT-PCR)” value is reported as “without showing any effect”.

Compound `COC(=O)c1ccc(N(C)S(=O)(=O)c2cc(C(=O)Nc3ccc(OCCN4CCOCC4)cc3)sc2-c2ccc(N3CCCCC3)cc2)cc1` [Compound 10, methyl 4-((N-methyl-5-((4-(2-morpholinoethoxy)phenyl)carbamoyl)-2-(4-(piperidin-1-yl)phenyl)thiophene)-3-sulfonamido)benzoate] showed an IC50 in assay [1] (exposure (table title)) of 67.5 µM. Moreover, the inhibition at 100 µM in assay [2] is more than 50%. Also, in assay [3], the “Bcl-2 mRNA expression (RT-PCR)” value is listed as “very strong down-regulation”, the “STAT1 mRNA expression (RT-PCR)” value is listed as “did not show any effect”, the “STAT3 mRNA expression (RT-PCR)” value is given as “significantly downregulated” and the “cyclin D1 mRNA expression (RT-PCR)” value is listed as “marked”. Moreover, in assay [3], the “fascin mRNA expression (RT-PCR)” value is listed as “marked” and the “house-keeping gene GAPDH mRNA expression (RT-PCR)” value is “did not show any effect”.

`COC(=O)c1ccc(N(C)S(=O)(=O)c2cc(C(=O)Nc3ccc(Cc4nc5cc(C)ccc5[nH]4)cc3)sc2Br)cc1` [Compound 34, methyl 4-((2-bromo-N-methyl-5-((4-((5-methyl-1H-benzo[d]imidazol-2-yl)methyl)phenyl)carbamoyl)thiophene)-3-sulfonamido)benzoate]: the IC50 in assay [1] (exposure (table title)) is 65.4 µM; in assay [4] (Homo sapiens, MDA-MB-231, 48 h), 7.32 µM. Testing at 100 µM in assay [2] gave an inhibition of 35.4%. In addition, in assay [4], the Selectivity ratio was found to be 8.93.

`COC(=O)c1ccc(N(C)S(=O)(=O)c2cc(C(=O)Nc3ccc4[nH]c(Cc5ccccc5)nc4c3)sc2Br)cc1` [Compound 35, methyl 4-((5-((2-benzyl-1H-benzo[d]imidazol-5-yl)carbamoyl)-2-bromo-N-methylthiophene)-3-sulfonamido)benzoate]: the 50% inhibitory concentration (IC50) came to 38.7 µM in assay [1] (exposure (table title)) and 4.45 µM in assay [4] (Homo sapiens, MDA-MB-231, 48 h). Also, in assay [2], the inhibition at 100 µM was found to be 33.3%. For the same compound, the Selectivity ratio in assay [4] was found to be 8.69.

Consider `COC(=O)c1ccc(N(C)S(=O)(=O)c2cc(C(=O)Nc3ccc4c(ccn4C)c3)sc2Br)cc1` [Compound 36, methyl 4-((2-bromo-N-methyl-5-((1-methyl-1H-indol-5-yl)carbamoyl)thiophene)-3-sulfonamido)benzoate], for which the IC50 is 45.3 µM in assay [1] (exposure (table title)) and 7.8 µM in assay [4] (Homo sapiens, MDA-MB-231, 48 h). For the same compound, in assay [2], the inhibition at 100 µM turned out to be 29.1%. The Selectivity ratio in assay [4] is 5.80.

`COC(=O)c1ccc(N(C)S(=O)(=O)c2cc(C(=O)NCc3ccc(CN4CCCC4)cc3)sc2Br)cc1` [Compound 37, methyl 4-((2-bromo-N-methyl-5-((4-(pyrrolidin-1-ylmethyl)benzyl)carbamoyl)thiophene)-3-sulfonamido)benzoate]: the IC50 amounted to 55.6 µM in assay [1] (exposure (table title)) and 5.64 µM in assay [4] (Homo sapiens, MDA-MB-231, 48 h). Moreover, 100 µM produced 30.2% inhibition in assay [2]. Also, the Selectivity ratio in assay [4] worked out at 9.85.

For the compound `COC(=O)c1ccc(N(C)S(=O)(=O)c2cc(C(=O)Nc3cccc(-c4csc(C)n4)c3)sc2Br)cc1` [Compound 38, methyl 4-((2-bromo-N-methyl-5-((3-(2-methylthiazol-4-yl)phenyl)carbamoyl)thiophene)-3-sulfonamido)benzoate], the half-inhibitory concentration (IC50) in assay [1] (exposure (table title)) was determined as 54.1 µM; in assay [4] (Homo sapiens, MDA-MB-231, 48 h), 11.6 µM. This compound also gave an inhibition at 100 µM in assay [2] of 29.2%. Moreover, the Selectivity ratio in assay [4] amounted to 4.67.

As for `COC(=O)c1ccc(N(C)S(=O)(=O)c2cc(C(=O)Nc3ccc(N4CCN(C(=O)c5cc6ccccc6o5)CC4)cc3)sc2Br)cc1` [Compound 39, methyl 4-((5-((4-(4-(benzofuran-2-carbonyl)piperazin-1-yl)phenyl)carbamoyl)-2-bromo-N-methylthiophene)-3-sulfonamido)benzoate], the IC50 in assay [1] (48 hours exposure (table title)) was 43.2 µM; in assay [4], 4.8 µM. In addition, the “% Inhibition” value in assay [2] was 36.44%.

`C[C@@H]1CC(=O)c2c(ccc3c2C(=O)c2cccc(O)c2C3=O)C1` [STA-21, reference compound]: the concentration for half-maximal inhibition (IC50) came out at 65.5 µM in assay [1] (exposure (table title)) and 18.7 µM in assay [4] (Homo sapiens, MDA-MB-231, 48 h). The same compound had an inhibition at 100 µM in assay [2] of 32.3%. Besides, the Selectivity ratio in assay [4] came to 3.5.
